Experimental data reported in patent publication US6177592A, “Compounds” (priority 1997, dated 2001).

Key:
tumor necrosis factor = test: TNF production from LPS-induced celiac macrophage; assay type: cell-based, mouse (CDF1)
Description: (2) Paraffin oil (Cosmo Bio) (2 ml) was intraperitoneally administered to female CDF1 mice of eight weeks age to induce celiac macrophage (M.phi.). After one week from administration of paraffin oil, 4 ml of an RPMI-1640 medium (Gibco) was intraperitoneally infused, well massaged and recovered to give celiac cells.
The celiac cells were washed with an RPMI-1640 medium twice and suspended in an PPMI1640 medium containing 10% of fetal calf serum (FCS; High-Clone) to adjust the cell concentration to 1×10^6 cells/ml. The cell solution (1 ml) prepared as such was planted on a 24-well plate and incubated in a CO2 incubator at 37° C. for two hours. Non-adhesion cells contained in the supernatant liquid after incubation was removed and the adhesion cells were used as celiac M . […]
After the incubation, 100 μl of 100 ng/ml LPS (manufactured by Sigma) was added and incubation was conducted for 24 hours more. After completion of the incubation, the supernatant liquid was recovered therefrom and the amount of TNF-a produced therein was determined using a commercially available ELISA kit (manufactured by Endogen).

NO production = test: Inhibition of LPS-induced NO production in RAW264.7; assay type: cell-based, mouse; conditions: RAW 264.7
Description: Inhibition activity of GM to NO production and to cell damage was measured as follows using mouse macrophage cell strain RAW264.7 cells (ATCC TIB 71) and LPS.
Dulbecco-modified Eagle's medium (manufactured by Life Technologies Oriental; 11054-020) containing 2 mM of L-glutamine (manufactured by Life Technologies Oriental; 25030-149) containing no Phenol Red containing 5 ml of 10% fetal calf serum (manufactured by Gibco) containing 1.5×10^6 cells of RAW 264.7 was incubated in a six-well tissue culture plate in the presence of 5% carbon dioxide gas at 37° C. for 12 hours, 50μl of 50μg/ml LPS (manufactured by Sigma; L-2012) was added, then each 50 μl of 250 )i M Mn or 100 μH GM was added to each well, incubation was further continued for additional 12 hours and, after that, NO2^- produced by oxidation of NO in the medium and amount of viable cell numbers were measured. Incidentally, a sect-Lon where no LPS was added and a section where no GM was added were prepared as controls. […]

Fas antigen = Fas antigen expression in Jurkat cells; assay type: cell-based, human; conditions: 1-10 μM, 24 hours
Description: (2) Influence of GM on Fas antigen expression (productive induction) in Jurkat cells and Molt-3 cells was measured as follows. In a 10% FCS-containing RPMI 1640 medium containing 0, 1, 5, 10 or 20 μM of cyclopentenone or GM, 5×10^5 cell/ml of Jurkat cells or Molt-3 cells were incubated at 37° C. for 24 hours in the presence of 5% of CO2 and then subjected to a two-step immunostaining using an anti-Fas antibody (manufactured by Boehringer-Ingelheim) in accordance with a method of Munker [Munker, R.: Ann. Hematol., volume 70, pages 15-17 (1995)].
Fluorescence intensity of the stained 1×10^4 cells was measured by a flow cytometer (Orthocytron; manufactured by Ortho Diagnostic Systems) and ratio of the cell showing a predetermined or higher fluorescence intensity which were Fas antigen-expressing cells was calculated.

NIH 3T3/Y-1 = test: Colony formation of control-vector NIH 3T3/Y-1 cells; assay type: cell-based; conditions: 5 μM GM, nine days; control 83.3 ± 8.4
Description: (1) Transformation to Escherichia coli HB101 was conducted by control plasmid pcD2-Y expressing G418-resisting gene [Mol. Cell. Biol., volume 7, pages 2745-2752 (1987)] and plasmid pcD2-16E7 which was capable of expressing both HPV 16 type E7 and G418-resisting gene [Jpn. J. Cancer Res., volume 82, pages 1340-1343 (1991)], then incubation was conducted in an L-broth medium and plasmid was extracted from the collected cells and purified by a cesium chloride density gradient ultracentrifugation to give vector plasmid for introduction of gene.
The purified plasmid (10 μg) was introduced into NIH 3T3 cells using a cationic liposome (TransIT LT-1, manufactured by Takara Shuzo), the cells were selected at 37° C. under the condition of 5% CO2 for two weeks in a Dulbecco-modified Eagle's medium containing 10% calf serum which contained 0.4 mg/ml of G418 (Gibco) and the resulting colonies were cloned to establish each nine strains of NIH 3T3 cells into which control vector was introdcd and NIH 3T3 cells which was cancerated with HPV 16 type E7.
The cell strains into which control vector was introduced were named NIH 3T3/Y-1, NIH 3T3/Y-2, NIH 3T3/Y-3, NIH 3T3/Y-4, NIH 3T3/Y-5, NIH 3T3/Y-6, NIH 3T3/Y-7, NIH 3T3/Y-8 and […]). […]
A part of the suspension was taken out and cell density was counted by a Neubauer's hemocytometer. […]

Question: What does the source list for `N[C@@H](CCC(=O)N[C@@H](CSC1C=C(O)C(=O)C1)C(=O)NCC(=O)O)C(=O)O` (some centres unmarked) [GM, 2-hydroxy-4-glutathion-S-yl-2-cyclopenten-1-one]?
Answer: inhibition activity of TNF production (in words) (tumor necrosis factor; Example 8): inhibition activity of the production of tumor necrosis factor; minimal effective concentration (tumor necrosis factor; Mus musculus, Macrophage, read-out: concentration which significantly inhibited TNF production, LPS-induced, 24 hours): ≥ 10 µM; inhibition of NO production (NO production): inhibited the NO production induced by LPS; ratio of Fas antigen-expressing cells (Fas antigen): the ratio of Fas antigen-expressing cells increased on a concentration-dependent manner; Numbers of Colonies (Mean Value ± SD) (NIH 3T3/Y-1): 72.0 ± 9.5
